{"source": "patent US6071919A", "about": "“Zwitterionic compositions and methods as biological response modifiers” (priority 1998, dated 2000)", "key": {"[1]": {"test": "Antibiotic efficacy in vivo"}, "cancer": {"system": "cancer", "test": "Treatment of cancer patients with HEPES alone", "assay_type": "in vivo, human", "conditions": "300 mg/kg to 1000 mg/kg daily"}, "[2]": {"conditions": "ADA: data of Schwarzenbach et al. (1955); cited from earlier work"}, "[3]": {"system": "giant platelets and histiocytes", "test": "Giant platelets and histiocytes on peripheral smear", "assay_type": "in vivo, animals", "conditions": "blood / peripheral smear", "from_the_text": "(§1) The amphoteric zwitterion compounds may be employed as active ingredients with other active ingredients, as well as other components and carriers typically used in pharmaceutical compositions; such as, but not limited to: buffers, stabilizers, dyes, antioxidants, dispersing agents, fillers, surfactants, silicones, bulking agents, pigments, salts, human or animal (natural or synthetic) cells and cellular components, antibiotics, drugs, vitamins, amino acids, proteins, serum and various other compounds and combinations thereof in varying amounts."}, "[4]": {"test": "Observations in HEPES-treated dogs", "assay_type": "in vivo"}, "[5]": {"conditions": "ADA: data of Schwarzenbach et al. (1955); cited from earlier work", "remark": "listed apart in the source"}, "[6]": {"conditions": "ADA: data of Schwarzenbach et al. (1955); cited from earlier work", "remark": "listed apart in the source"}, "[7]": {"system": "beta-hemolytic streptococci", "test": "Example Twelve: MIC of antibiotics with and without HEPES, streptococci", "assay_type": "cell-based", "conditions": "agar gel cultures, colony counts of 10^6, with vs without HEPES", "description": "(§2) Routine agar gel cultures are inoculated with beta-hemolytic streptococci and gram […] staphylococci. The cultures were raised to colony counts of 10^6. The mean inhibitory concentration (MIC) with susceptible antibiotics was measured with and without the presence of zwitterionic piperazine (HEPES)."}, "[8]": {"conditions": "ADA: data of Schwarzenbach et al. (1955); cited from earlier work", "remark": "listed apart in the source"}, "[9]": {"conditions": "cited from earlier work"}, "[10]": {"system": "gram negative staphylococci", "test": "Example Twelve: MIC of antibiotics with and without HEPES, staphylococci", "assay_type": "cell-based", "conditions": "agar gel cultures, colony counts of 10^6, with vs without HEPES", "description": "as §2"}, "[11]": {"conditions": "change of pKa per ° C.; cited from earlier work"}, "[12]": {"test": "Example Fourteen: patient with ventricular irritability", "assay_type": "in vivo, human", "conditions": "3000 mg orally for seven days; baseline 4-6 per minute", "description": "A person with ventricular irritability, 4-6 premature ventricular contractions per minute (PVCs), was not controlled with Prancetyl, Quinidine, or beta blockade. They were taking no medicines and was started on 3000 mg zwitterionic piperazine orally for seven days. At the end of seven days, the patient had only occasional PVC (1 every 10 minutes)."}, "[13]": {"system": "bone marrow / extramedullary hematopoiesis", "test": "Example Seven: bone marrow and liver biopsy in healthy beagle dogs", "assay_type": "in vivo", "conditions": "18 mg/kg i.v. one week, then 40 mg/kg one week", "description": "Five healthy beagle dogs (males and females) were given 18 mg/kg intravenously of zwitterionic piperazine compound (HEPES) for one week. The dose was increased to 40 mg/kg for one week. […] This is also consistent with immune stimulating effect."}, "cancer tumors": {"system": "cancer tumors", "test": "Macrophage infiltration of tumors", "assay_type": "in vivo, dogs", "from_the_text": "as §1"}, "[14]": {"system": "acute hymphocytic leukemia (ALL)", "test": "Example Sixteen: patient with acute lymphocytic leukemia in blast crisis", "assay_type": "in vivo, human", "conditions": "for Hemoglobin (Hgb): pre-infusion 10.5; for Blasts: pre-infusion 45%; for Platelets: pre-infusion 31,000; for White Blood Cells (WBC): pre-infusion 38,000", "from_the_text": "A person presented with acute hymphocytic leukemia (ALL).\nThey were started on zwitterionic piperazine therapy (HEPES).\nHer baseline laboratory data was obtained following a blood transfusion before starting the HEPES;"}, "alkaline phosphatase": {"system": "alkaline phosphatase", "test": "Decrease of alkaline phosphatase in mammals", "assay_type": "in vivo", "from_the_text": "It is discovered that zwitterionic compounds, such as HEPES, decrease the production of alkaline phosphatase in mammals."}, "Herpes Zoster": {"system": "Herpes Zoster", "test": "Example Nine: patient with painful Herpes Zoster", "assay_type": "in vivo, human", "conditions": "1000 mg i.v. daily", "description": "A person with painful Herpes Zoster unresponsive to conventional treatment was given 1000 mg intravenously of zwitterionic piperazine daily."}, "HIV": {"system": "HIV", "test": "Example Ten: patient with HIV infection and HIV associated polyneuropathy", "assay_type": "in vivo", "conditions": "5000 mg i.v. daily, after thirty days", "description": "A person with documented HIV infection had HIV associated polyneuropathy. They could not raise their legs without assistance. They were given 5000 mg intravenously of zwitterionic piperazine (HEPES) daily for thirty days. […] Their cluster determinates had risen and sensation and proprioception were improved."}, "[15]": {"test": "Treatment of myasthenia gravis patients with HEPES alone", "assay_type": "in vivo, human", "conditions": "300 mg/kg to 1000 mg/kg daily", "description": "(§3) To date, more than twenty-five patients have been treated with 300 mg/kg to 1000 mg/kg HEPES daily (no other agents or additional compositions)."}, "[16]": {"test": "Treatment of rheumatoid arthritis patients with HEPES alone", "assay_type": "in vivo, human", "conditions": "300 mg/kg to 1000 mg/kg daily", "description": "as §3"}, "hepatitis B": {"system": "hepatitis B", "test": "Example Eleven: patient with chronic hepatitis B infection", "assay_type": "in vivo, human", "conditions": "5000 mg i.v., after thirty days", "from_the_text": "After thirty days, their bilirubin fell to 3.0 and other liver enzymes were reduced by 25 percent or more."}, "[17]": {"test": "Example Fifteen: patient with seizure disorder, EEG", "assay_type": "in vivo, human", "conditions": "5000 mg orally (2500 mg twice a day), two weeks", "description": "A person with a longstanding history of seizure disorder was poorly controlled and had recurrent seizures while taking Dilantin and phenobarbital. They started on 5000 mg zwitterionic piperazine orally (2500 mg twice a day) for two weeks. […] The zwitterionic piperazine (HEPES) has membrane stabilizing properties, is effective for anti-arrhythmic therapy, and is effective anti-seizure therapy."}, "[18]": {"conditions": "13.0 mg/kg I.V. increased to 80 mg/kg I.V."}}, "note": "Entries after “also recorded” stand apart in the source; their conditions may differ."}
{"smiles": "O=S(=O)(O)CCN1CCN(CCO)CC1", "note": "[HEPES, N-2 Hydroxyethylpiperazine-N'-2 Ethane Sulfonic Acid]", "values": [{"measurement": "antibiotic efficacy in vivo", "setting": "[1]", "value": "enhanced the antibiotic efficacy in vivo"}, {"measurement": "decrease in tumor volume and/or tumor activity", "setting": "cancer; all patients with cancer", "value": "25%-50%"}, {"measurement": "cancer pain response", "setting": "cancer; all patients with cancer pain", "value": "All patients with cancer pain have responded with pain reduction"}, {"measurement": "Metal-Buffer Binding Constants Log KM, Mn^2+", "setting": "[2]", "value": "Negl"}, {"measurement": "giant platelets and histiocytes", "setting": "[3]", "value": "production of giant platelets and histiocytes; also recorded: produces giant platelets and histiocytes in blood"}, {"measurement": "behaviour following injections", "setting": "[4]; all dogs", "value": "all dogs became calm following injections"}, {"measurement": "hematomas at the injection sites", "setting": "[4]; all treated dogs", "value": "rapid resolution of hematomas at the injection sites"}, {"measurement": "diuresis", "setting": "[4]; certain dosages", "value": "marked diuresis at certain dosages"}, {"measurement": "vascular integrity", "setting": "[4]; treated groups", "value": "strong evidence of improved vascular integrity"}, {"measurement": "respiratory infections", "setting": "[4]; while being treated, many in untreated group did", "value": "no animals in the treated group had any respiratory infections while being treated"}, {"measurement": "Metal-Buffer Binding Constants Log KM, Mg^2+", "setting": "[5]", "value": "Negl"}, {"measurement": "Metal-Buffer Binding Constants Log KM, Cu^2+", "setting": "[6]", "value": "Negl"}, {"measurement": "decrease in MIC of each antibiotic in culture (in vitro)", "setting": "[7]", "value": "more than 10%"}, {"measurement": "Metal-Buffer Binding Constants Log KM, Ca^2+", "setting": "[8]", "value": "Negl"}, {"measurement": "Saturated Solution at 0°", "setting": "[9]", "value": 2.25, "unit": "M"}, {"measurement": "decrease in MIC of each antibiotic in culture (in vitro)", "setting": "[10]", "value": "more than 10%"}, {"measurement": "αpKa /° C.", "setting": "[11]", "value": -0.014}, {"measurement": "premature ventricular contractions (PVC)", "setting": "[12]", "value": 1, "unit": "every 10 minutes"}, {"measurement": "circulating histiocytes and giant platelets", "setting": "[13]; all animals", "value": "increase in circulating histiocytes and giant platelets"}, {"measurement": "bone marrow biopsy", "setting": "[13]; all dogs", "value": "the bone marrow became hypercellular"}, {"measurement": "liver biopsy (extramedullary hematopoiesis)", "setting": "[13]; all dogs", "value": "presence of megakaryocyte production consistent with induced extramedullary hematopoiesis"}, {"measurement": "macrocytic invasion of tumors", "setting": "cancer tumors; administered to mammals", "value": "macrocytic invasion of tumors"}, {"measurement": "macrophage infiltration of cancer tumors", "setting": "cancer tumors; dogs", "value": "macrophage infiltration of cancer tumors in dogs"}, {"measurement": "blast crisis", "setting": "[14]; [18]", "value": "cessation of the blasts crisis"}, {"measurement": "platelet destruction", "setting": "[14]; [18]", "value": "Platelet destruction has ceased"}, {"measurement": "Hemoglobin (Hgb)", "setting": "[14]; Day 3 of HEPES treatment", "value": 8.5, "unit": "g/dL"}, {"measurement": "Blasts", "setting": "[14]; Day 3 of HEPES treatment", "value": 45, "unit": "%"}, {"measurement": "Platelets", "setting": "[14]; Day 3 of HEPES treatment", "value": "14,000"}, {"measurement": "White Blood Cells (WBC)", "setting": "[14]; Day 3 of HEPES treatment", "value": "53,000"}, {"measurement": "Hemoglobin (Hgb)", "setting": "[14]; Day 7 of HEPES treatment", "value": 11.6, "unit": "g/dL"}, {"measurement": "Blasts", "setting": "[14]; Day 7 of HEPES treatment", "value": 5.0, "unit": "%"}, {"measurement": "Platelets", "setting": "[14]; Day 7 of HEPES treatment", "value": "17,000"}, {"measurement": "White Blood Cells (WBC)", "setting": "[14]; Day 7 of HEPES treatment", "value": "6,300"}, {"measurement": "fall of baseline alkaline phosphatase levels", "setting": "alkaline phosphatase; in excess of 100 mg/kg to 500 mg/kg or greater", "value": "fall by a factor of two or greater"}, {"measurement": "alkaline phosphatase measurability", "setting": "alkaline phosphatase; in excess of 100 mg/kg to 500 mg/kg or greater, some cases", "value": "not measurable by standard laboratory methods"}, {"measurement": "concentration at which decrease of alkaline phosphatase appears to start", "setting": "alkaline phosphatase; mammals", "value": "approximately 12 mg/kg"}, {"measurement": "pain", "setting": "Herpes Zoster; second day", "value": "the pain had diminished, so that other analgesia was not required"}, {"measurement": "lesions", "setting": "Herpes Zoster; seventh day", "value": "the lesions had healed"}, {"measurement": "pain", "setting": "Herpes Zoster; seventh day", "value": "no pain at all"}, {"measurement": "lesions", "setting": "Herpes Zoster; third day", "value": "the lesions had crusted and were clearly healing"}, {"measurement": "Total viral load determined by PCR", "setting": "HIV", "value": "decreased"}, {"measurement": "ability to raise legs", "setting": "HIV", "value": "could raise their legs without assistance"}, {"measurement": "cluster determinates", "setting": "HIV", "value": "had risen"}, {"measurement": "sensation and proprioception", "setting": "HIV", "value": "improved"}, {"measurement": "reduction in disease activity", "setting": "[15]", "value": "25%-50%"}, {"measurement": "reduction in disease activity", "setting": "[16]", "value": "25%-50%"}, {"measurement": "reduction of other liver enzymes", "setting": "hepatitis B", "value": "≥ 25", "unit": "%"}, {"measurement": "bilirubin level", "setting": "hepatitis B; baseline 5.0", "value": 3.0}, {"measurement": "EEG focal activity", "setting": "[17]", "value": "significantly decreased focal activity"}]}
